Measured values published in US20240262826A1, “WILD TYPE KIT INHIBITORS” (Blueprint Medicines Corporation, priority 2022, published 2024).

How the values were obtained:
[1] = target: wild type c-kit (Homo sapiens (Human), UniProt P10721); assay: PathScan phospho c-kit (Tyr719) sandwich ELISA in SCF-stimulated M-07e cells (pKIT assay); format: cell-based; settings: ELISA assay (values not marked *)
Method in brief: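 Tyr719-phosphorylated c-kit was measured by colorimetric (TMB) sandwich ELISA in lysates of M-07e cells. Cells were starved 4 h without serum or GM-CSF, dosed 60 min at 37 °C with compound (8 points, duplicate, 0.25% DMSO), and stimulated 10 min with human SCF (500 ng/mL as added). IC50 values came from 4-parameter logistic regression.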

[2] = target: human P-glycoprotein (P-gp, MDR1) (Homo sapiens (Human), UniProt P08183); assay: MDCK-MDR1 cell monolayer drug transport assay (P-gp efflux ratio); format: in vitro ADME; settings: pH 7.4, MDCK-MDR1 cells; for efflux ratio at 2 h, 1 µM: 1 uM concentration of compound, read-out: Pgp Efflux Ratio, 1 uM
Chain of human P-glycoprotein (P-gp, MDR1) (P08183 whole entry): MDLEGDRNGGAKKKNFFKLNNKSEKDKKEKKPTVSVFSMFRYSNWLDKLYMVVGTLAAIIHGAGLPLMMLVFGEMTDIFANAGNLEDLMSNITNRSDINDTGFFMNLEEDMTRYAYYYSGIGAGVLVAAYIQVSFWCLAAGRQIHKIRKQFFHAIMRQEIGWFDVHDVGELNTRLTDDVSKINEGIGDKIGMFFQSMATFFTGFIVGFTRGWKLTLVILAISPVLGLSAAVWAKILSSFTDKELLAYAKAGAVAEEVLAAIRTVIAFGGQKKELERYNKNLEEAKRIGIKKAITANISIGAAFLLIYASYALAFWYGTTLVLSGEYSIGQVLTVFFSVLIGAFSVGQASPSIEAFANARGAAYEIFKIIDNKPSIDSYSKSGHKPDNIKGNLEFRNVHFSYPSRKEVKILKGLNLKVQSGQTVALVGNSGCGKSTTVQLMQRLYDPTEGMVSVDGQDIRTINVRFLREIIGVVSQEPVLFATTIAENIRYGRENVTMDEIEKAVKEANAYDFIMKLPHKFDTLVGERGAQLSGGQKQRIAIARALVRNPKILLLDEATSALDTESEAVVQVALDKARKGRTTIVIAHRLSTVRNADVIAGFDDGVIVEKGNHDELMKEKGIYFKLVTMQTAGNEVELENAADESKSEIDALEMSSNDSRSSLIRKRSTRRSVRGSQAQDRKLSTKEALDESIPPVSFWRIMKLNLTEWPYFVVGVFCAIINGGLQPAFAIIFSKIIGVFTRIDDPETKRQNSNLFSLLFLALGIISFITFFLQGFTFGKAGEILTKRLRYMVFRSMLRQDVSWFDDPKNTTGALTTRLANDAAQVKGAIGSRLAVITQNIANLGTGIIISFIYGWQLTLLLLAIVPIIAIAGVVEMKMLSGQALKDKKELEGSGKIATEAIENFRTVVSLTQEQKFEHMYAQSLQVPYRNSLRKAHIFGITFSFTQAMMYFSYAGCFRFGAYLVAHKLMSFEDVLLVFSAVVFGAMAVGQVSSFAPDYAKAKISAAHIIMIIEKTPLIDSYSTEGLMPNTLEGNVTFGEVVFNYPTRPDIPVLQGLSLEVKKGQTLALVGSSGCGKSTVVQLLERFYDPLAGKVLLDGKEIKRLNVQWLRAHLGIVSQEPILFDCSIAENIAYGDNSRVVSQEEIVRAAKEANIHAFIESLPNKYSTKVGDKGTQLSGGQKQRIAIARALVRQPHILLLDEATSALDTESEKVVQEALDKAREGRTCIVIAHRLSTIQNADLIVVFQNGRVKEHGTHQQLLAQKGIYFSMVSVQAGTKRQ
Experimental: The potential for compounds prepared according to the examples to be substrates of P-gp was evaluated using in vitro on Multidrug Resistance Mutation 1-Mardin-Darby Canine Kidney (MDCK-MDR1)) (Mardin-Darby Canine Kidney) cell monolayers overexpressing P-gp grown on permeable supports.
Preparation for cell seeding: MDCK-MDR1 cell culture medium consisting of Dulbecco's Modified Eagle's Medium (DMEM) with high glucose and L-glutamine supplemented with: 10% FBS, 0.1 mg/mL of streptomycin, 0.6 μg/mL of Kanamycin sulfate and 100 units of penicillin was prepared. 50 μL of culture medium was added to each well of the Transwell insert. The Transwell insert was removed from the reservoir and 25 mL of culture medium was added. After incubation at 37° C., 5% CO2 for 1 hour, the plates were ready for cell seeding. The cells were cultivated in T-75 flasks in a cell culture incubator set at 37° C., 5% CO2, 95% relative humidity until they reached 80-90% confluence before detaching and splitting. The cultivated cells were rinsed in T-75 flasks with 5 mL PBS and aspirated off, and then 1.5 mL trypsin/EDTA was added and incubated at 37° C. for approximately 5 to 10 minutes or until the cells detach and float. The trypsin/EDTA was inactived by adding excess serum containing medium. The cell suspension was transferred to a conical tube and the cells pelleted by centrifugation at 120×g for 10 minutes. The cells were resuspended in seeding medium at a density of 1.56×10^6 cells/mL. This cell concentration was used to seed 5.45×10^5 cells/cm^2.
Seeding and feeding of MDCK-MDR1 cells into transwell plates: 50 μL of the above cell suspension was added to each well of a previously prepared Transwell plate and the plate was incubated for 4-8 days, replacing the medium every other day beginning no sooner than 48 hours after initial plating. The medium must be replaced on the day before conducting the experiment, and the procedure for medium changes was carried out as follows. The plate was removed from the incubator and placed in a hood. The medium was aspirated from a reservoir and each Transwell was inserted. 100 μL of culture medium was added to each well of the Transwell inserts and 25 mL of culture medium to reservoir tray. The plate was returned to the incubator.
Assessment of cell monolayer integrity: When the 4-day cultured MDCK-MDR1 cells reached confluence and were differentiated, the medium was removed from the reservoir and Transwell inserts. 100 μL of prewarmed culture medium was added to each transwell insert and 25 mL was added to the reservoir tray. The electrical resistance across the monolayer was measured using a Millicell Epithelial Volt-Ohm measuring system. The electrical resistance for each well was measured and then the plate was returned to the incubator. TEER values were calculated using this formula: TEER measurement (ohms)×Area of membrane (cm2)=TEER value (ohm cm2). Any monolayer with a TEER value <42 ohms·cm2, indicating poor monolayer formation, was discarded.
Performing the drug transport assay: The MDCK-MDR1 plate was removed from the incubator and the monolayer was washed, exchanging the volume two times using pre-warmed HBSS (Hank's balanced salt solution) (10 mM HEPES, pH 7.4). The plate was then incubated at 37° C. for 30 minutes. A 1 μM compound working solution was prepared as follows: Added […] of stock solution (10 mM in DMSO) of test compound and control compounds (Metoprolol, Prazosin and Imatinib) in one 96 well plate, then added 98 μL of DMSO into the same well to obtain 0.2 mM stock solutions (note a stock solution was further diluted 1:10 for eventually making a 0.1 uM compound working solution). Transfered 3 μL of 0.2 mM solution into 597 μL of transport buffer in one 96 well plate to prepare the 1 μM compound working solution. The plate was shaken at 1000 rpm for 10 min.

Chain of wild type c-kit (P10721 26-976): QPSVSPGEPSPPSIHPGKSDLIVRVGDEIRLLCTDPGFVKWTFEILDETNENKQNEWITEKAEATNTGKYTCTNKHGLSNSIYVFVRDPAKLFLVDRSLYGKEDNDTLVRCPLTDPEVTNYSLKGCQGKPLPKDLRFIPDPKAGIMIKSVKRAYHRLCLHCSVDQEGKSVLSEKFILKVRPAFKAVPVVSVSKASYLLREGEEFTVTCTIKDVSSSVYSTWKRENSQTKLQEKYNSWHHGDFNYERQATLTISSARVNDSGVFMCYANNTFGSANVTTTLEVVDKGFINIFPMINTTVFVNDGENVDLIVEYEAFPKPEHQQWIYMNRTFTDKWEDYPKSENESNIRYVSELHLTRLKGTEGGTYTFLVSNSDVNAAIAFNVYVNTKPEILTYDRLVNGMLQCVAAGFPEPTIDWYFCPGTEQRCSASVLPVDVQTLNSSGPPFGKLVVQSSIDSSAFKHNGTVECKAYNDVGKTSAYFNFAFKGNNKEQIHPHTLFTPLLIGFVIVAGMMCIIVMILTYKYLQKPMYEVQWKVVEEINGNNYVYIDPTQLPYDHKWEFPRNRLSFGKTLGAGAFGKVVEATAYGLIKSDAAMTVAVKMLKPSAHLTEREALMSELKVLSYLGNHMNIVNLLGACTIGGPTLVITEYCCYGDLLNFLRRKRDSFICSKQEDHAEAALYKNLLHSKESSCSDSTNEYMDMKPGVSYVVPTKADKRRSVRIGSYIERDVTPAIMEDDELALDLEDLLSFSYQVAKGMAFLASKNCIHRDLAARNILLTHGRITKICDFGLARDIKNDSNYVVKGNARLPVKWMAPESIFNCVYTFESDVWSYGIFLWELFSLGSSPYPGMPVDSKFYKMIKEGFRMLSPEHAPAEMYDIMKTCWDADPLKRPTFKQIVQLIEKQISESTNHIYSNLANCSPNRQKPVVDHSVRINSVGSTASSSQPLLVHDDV

IC50 [1]	efflux ratio at 2 h, 1 µM [2]	efflux ratio at 2 h, 0.1 µM ([2]; 0.1 uM concentration of compound (denoted by **), read-out: Pgp Efflux Ratio)	SMILES
4.1 nM	35.9		Cc1ccc(-c2nnn([C@H]3C[C@@H](C(F)(F)F)C3)n2)cc1NC(=O)c1cnn2ccc(NCCO)cc12 [Example 120, 5-((2-hydroxyethyl)amino)-N-(2-methyl-5-(2-((1s,3s)-3-(trifluoromethyl)cyclobutyl)-2H-tetrazol-5-yl)phenyl)pyrazolo[1,5-a]pyridine-3-carboxamide or 5-((2-hydroxyethyl)amino)-N-(2-methyl-5-(2-((1r,3r)-3-(trifluoromethyl)cyclobutyl)-2H-tetrazol-5-yl)phenyl)pyrazolo[1,5-a]pyridine-3-carboxamide]
1.5 nM	10.9		Cc1ccc(-c2nnn(C)n2)cc1NC(=O)c1cnn2ccc(-c3cnn(C[C@@H](C)O)c3)cc12 (mixture of isomers) [Example 53, (R)-5-(1-(2-hydroxypropyl)-1H-pyrazol-4-yl)-N-(2-methyl-5-(2-methyl-2H-tetrazol-5-yl)phenyl)pyrazolo[1,5-a]pyridine-3-carboxamide and (S)-5-(1-(2-hydroxypropyl)-1H-pyrazol-4-yl)-N-(2-methyl-5-(2-methyl-2H-tetrazol-5-yl)phenyl)pyrazolo[1,5-a]pyridine-3-carboxamide]
31.3 nM	14.6		COCCNc1ccn2ncc(C(=O)Nc3cc(-c4nnn(C5CN(C(=O)OC)C5)n4)c(F)cc3C)c2c1 [Example 114, methyl 3-(5-(2-fluoro-5-(5-((2-methoxyethyl)amino)pyrazolo[1,5-a]pyridine-3-carboxamido)-4-methylphenyl)-2H-tetrazol-2-yl)azetidine-1-carboxylate]
0.8 nM	2.3		COC[C@@H](O)Cn1nc(C)c(-c2ccn3ncc(C(=O)Nc4cc(-c5nnn(C)n5)ccc4C)c3c2)c1C [Example 245, (S)-5-(1-(2-hydroxy-3-methoxypropyl)-3,5-dimethyl-1H-pyrazol-4-yl)-N-(2-methyl-5-(2-methyl-2H-tetrazol-5-yl)phenyl)pyrazolo[1,5-a]pyridine-3-carboxamide]
1.6 nM	5.2		COC[C@@](C)(O)Cn1cc(-c2ccn3ncc(C(=O)Nc4cc(-c5nnn(C6CC6)n5)ccc4C)c3c2)cn1 (single isomer, unassigned) [Example 268, (S)-N-(5-(2-cyclopropyl-2H-tetrazol-5-yl)-2-methylphenyl)-5-(1-(2-hydroxy-3-methoxy-2-methylpropyl)-1H-pyrazol-4-yl)pyrazolo[1,5-a]pyridine-3-carboxamide or (R)-N-(5-(2-cyclopropyl-2H-tetrazol-5-yl)-2-methylphenyl)-5-(1-(2-hydroxy-3-methoxy-2-methylpropyl)-1H-pyrazol-4-yl)pyrazolo[1,5-a]pyridine-3-carboxamide]
7.6 nM	36.4		COC(=O)N1CC(c2cnn(-c3ccc(C)c(NC(=O)c4cnn5ccc(NC6COC6)cc45)c3)n2)C1 [Example 141, methyl 3-(2-(4-methyl-3-(5-(oxetan-3-ylamino)pyrazolo[1,5-a]pyridine-3-carboxamido)phenyl)-2H-1,2,3-triazol-4-yl)azetidine-1-carboxylate]
0.7 nM	8.9		COC[C@@H](O)Cn1cc(-c2ccn3ncc(C(=O)Nc4cc(-c5nnn(C6CC6)n5)c(F)cc4C)c3c2)c(C2CC2)n1 [Example 257, (S)-5-(3-cyclopropyl-1-(2-hydroxy-3-methoxypropyl)-1H-pyrazol-4-yl)-N-(5-(2-cyclopropyl-2H-tetrazol-5-yl)-4-fluoro-2-methylphenyl)pyrazolo[1,5-a]pyridine-3-carboxamide]
9.8 nM	16		Cc1ccc(-c2nnn(C)n2)cc1NC(=O)c1cnn2ccc(-c3cnn(CCO)c3)cc12 [Example 47, 5-(1-(2-hydroxyethyl)-1H-pyrazol-4-yl)-N-(2-methyl-5-(2-methyl-2H-tetrazol-5-yl)phenyl)pyrazolo[1,5-a]pyridine-3-carboxamide]
3.7 nM	39.3		Cc1cc(F)c(-c2nnn([C@H]3C[C@@H](C(F)(F)F)C3)n2)cc1NC(=O)c1cnn2ccc(N3CC(C)(O)C3)cc12 [Example 64, N-(4-fluoro-2-methyl-5-(2-((1s,3s)-3-(trifluoromethyl)cyclobutyl)-2H-tetrazol-5-yl)phenyl)-5-(3-hydroxy-3-methylazetidin-1-yl)pyrazolo[1,5-a]pyridine-3-carboxamide]
0.5 nM	3		Cc1ccc(-n2nnc(C3CC3)n2)cc1NC(=O)c1cnn2cc(-c3cnn(CC4(O)CCOCC4)c3)cc(F)c12 [Example 277, N-(5-(5-cyclopropyl-2H-tetrazol-2-yl)-2-methylphenyl)-4-fluoro-6-(1-((4-hydroxytetrahydro-2H-pyran-4-yl)methyl)-1H-pyrazol-4-yl)pyrazolo[1,5-a]pyridine-3-carboxamide]
1.8 nM	12.4		Cc1ccc(-c2nnn(C3CC3)n2)cc1NC(=O)c1cnn2ccc(-c3cnn(CCCN4CCOCC4)c3)cc12 [Example 220, N-(5-(2-cyclopropyl-2H-tetrazol-5-yl)-2-methylphenyl)-5-(1-(3-morpholinopropyl)-1H-pyrazol-4-yl)pyrazolo[1,5-a]pyridine-3-carboxamide]
87.7 nM	33.9		COC(=O)N1CC(n2nnc(-c3ccc(C)c(NC(=O)c4cnn5ccc(N6CC[C@H]6CO)cc45)c3)n2)C1 [Example 90, methyl (S)-3-(5-(3-(5-(2-(hydroxymethyl)azetidin-1-yl)pyrazolo[1,5-a]pyridine-3-carboxamido)-4-methylphenyl)-2H-tetrazol-2-yl)azetidine-1-carboxylate]
0.4 nM		1.8	Cc1nn(CC(C)(C)O)cc1-c1ccn2ncc(C(=O)Nc3cc(-c4nnn(C5CC5)n4)c(F)cc3Cl)c2c1 [Example 251, N-(2-chloro-5-(2-cyclopropyl-2H-tetrazol-5-yl)-4-fluorophenyl)-5-(1-(2-hydroxy-2-methylpropyl)-3-methyl-1H-pyrazol-4-yl)pyrazolo[1,5-a]pyridine-3-carboxamide]
	41		Cc1ccc(-c2nnn(CCOCC(F)(F)F)n2)cc1NC(=O)c1cnn2ccc(-c3cn[nH]c3)cc12 [Example 197, N-(2-methyl-5-(2-(2-(2,2,2-trifluoroethoxy)ethyl)-2H-tetrazol-5-yl)phenyl)-5-(1H-pyrazol-4-yl)pyrazolo[1,5-a]pyridine-3-carboxamide]
	33.1		Cc1cnn(-c2ccc(C)c(NC(=O)c3cnn4ccc(-c5cnn(C[C@H]6CNCCO6)c5)cc34)c2)n1 [Example 205, (R)—N-(2-methyl-5-(4-methyl-2H-1,2,3-triazol-2-yl)phenyl)-5-(1-(morpholin-2-ylmethyl)-1H-pyrazol-4-yl)pyrazolo[1,5-a]pyridine-3-carboxamide]

SMILES	IC50 [1]	efflux ratio at 2 h, 1 µM [2]	efflux ratio at 2 h, 0.1 µM ([2]; 0.1 uM concentration of compound (denoted by **), read-out: Pgp Efflux Ratio)
COCCNc1cc2c(C(=O)Nc3cc(-c4nnn(C5CN(C(=O)OC)C5)n4)ccc3C)cnn2cc1F [Example 171, methyl 3-(5-(3-(6-fluoro-5-((2-methoxyethyl)amino)pyrazolo[1,5-a]pyridine-3-carboxamido)-4-methylphenyl)-2H-tetrazol-2-yl)azetidine-1-carboxylate]	34.3 nM	6	
